Experimental data taken from patent publication US20240132467A1, “BENZIMIDAZOLE DERIVATIVES FOR TREATING RESPIRATORY DISEASE” (TMEM16A Limited, priority 2020, published 2024).

Molecular target: T1, human TMEM16A (TMEM16Aabc variant) (Homo sapiens, UniProt Q5XXA6, DEL476-501)
T1 sequence (Q5XXA6 with tags, fused parts or gaps isoform Q5XXA6-5 DEL539-564): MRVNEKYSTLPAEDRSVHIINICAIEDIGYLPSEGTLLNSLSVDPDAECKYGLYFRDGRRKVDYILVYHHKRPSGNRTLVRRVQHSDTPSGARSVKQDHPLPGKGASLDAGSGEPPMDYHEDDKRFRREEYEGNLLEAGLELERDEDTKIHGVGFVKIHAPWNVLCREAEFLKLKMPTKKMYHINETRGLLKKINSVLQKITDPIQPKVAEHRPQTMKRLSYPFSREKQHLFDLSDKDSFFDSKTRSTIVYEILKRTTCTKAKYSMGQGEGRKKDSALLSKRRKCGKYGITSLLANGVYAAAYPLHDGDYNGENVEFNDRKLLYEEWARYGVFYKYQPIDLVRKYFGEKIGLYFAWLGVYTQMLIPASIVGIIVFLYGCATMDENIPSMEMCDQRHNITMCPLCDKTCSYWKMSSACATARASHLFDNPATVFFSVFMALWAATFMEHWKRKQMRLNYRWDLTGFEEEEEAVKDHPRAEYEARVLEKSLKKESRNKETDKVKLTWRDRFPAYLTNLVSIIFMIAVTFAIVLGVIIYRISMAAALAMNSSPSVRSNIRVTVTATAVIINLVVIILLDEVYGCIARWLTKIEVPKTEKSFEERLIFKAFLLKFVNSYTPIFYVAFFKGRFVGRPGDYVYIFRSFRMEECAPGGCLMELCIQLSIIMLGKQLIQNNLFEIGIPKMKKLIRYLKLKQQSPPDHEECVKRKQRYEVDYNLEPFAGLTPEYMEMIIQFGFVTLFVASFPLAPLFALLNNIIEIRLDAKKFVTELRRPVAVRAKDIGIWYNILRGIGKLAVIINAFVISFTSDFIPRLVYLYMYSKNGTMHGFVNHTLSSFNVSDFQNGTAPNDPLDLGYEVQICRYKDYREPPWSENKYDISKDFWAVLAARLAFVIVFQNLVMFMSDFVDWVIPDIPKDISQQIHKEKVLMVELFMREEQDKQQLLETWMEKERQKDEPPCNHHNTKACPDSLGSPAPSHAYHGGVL
Assay: Automated whole-cell patch clamp (Qpatch) TMEM16A potentiator assay in FRT cells stably expressing human TMEM16A
Type: cell-based
Settings: for activation at 3.33 µM: 3.33 μM test compound, percentage increase of baseline TMEM16A current at +70 mV, intracellular calcium at EC20, read-out: % Potentiation @ 3.33 μM Avg; for EC50: cumulative concentration response, 5 min per concentration, whole-cell patch clamp
Description: Automated whole-cell patch clamp assay to detect TMEM16A activity in recombinant cells Cell culture and preparation
Fisher rat thyroid (FRT) cells stably expressing human TMEM16A (TMEM16Aabc variant; Dr Luis Galietta, Insituto Giannina, Italy) were cultured in T-75 flasks in Hams F-12 media with Coon's modification (Sigma) supplemented with 10% (v/v) foetal bovine serum, penicillin-streptomycin (10,000 U/mL/10000 μg/mL), G-418 (750μg/mL), L-glutamine (2 mM) and sodium bicarbonate solution (7.5% v/v). At —90% confluence cells were harvested for experiments by detachment with a 2:1 (v/v) mixture of Detachin (BMS Biotechnology) and 0.25% (w/v) trypsin-EDTA. Cells were diluted to a density of 3.5-4.5×10^6 cells/mL with media consisting of CHO-S-SFM II (Sigma), 25 mM HEPES (Sigma) and Soy bean trypsin inhibitor (Sigma).
Whole-Cell Patch Clamp Recording
FRT-TMEM16A cells were whole-cell patch clamped using an automated planar patch clamp system (Qpatch, Sophion). Briefly, once high resistance (GOhm) seals were established between the cells and the planar recording array the patch was ruptured using suction pulses to establish the whole-cell recording configuration of the patch clamp technique. The assay employed the following solutions (all reagents Sigma):
Intracellular solution (mM): N-methyl-D-glucamine 130, CaCl2 18.2, MgCl2 1, HEPES 10, EGTA 10, BAPTA 20, Mg-ATP 2, pH 7.25, 325mOsm with sucrose.
Extracellular solution (mM): N-methyl-D-glucamine 130, CaCl2 2, MgCl2 1, HEPES 10, pH 7.3, 320 mOsm with sucrose.
The intracellular solution buffers intracellular calcium at levels required to give —20% activation of the maximal TMEM16A mediated current (EC20 for calcium ions). Cells were voltage clamped at a holding potential of -70mV and a combined voltage step (to +70 mV)/ramp (−90 my to +90 mV) was applied at 0.05 Hz. After a period of current stabilisation test compounds, solubilised in 100% (v/v) DMSO and subsequently diluted into extracellular solution, were applied to generate a cumulative concentration response curve. Each concentration of test compound was incubated for 5 minutes before addition of the next concentration. After the final concentration was tested a supramaximal concentration of either a known active positive modulator or the TMEM16A inhibitor, CaCCinhA01 (Del La Fuente et al, 2008) was added to define the upper and lower limits of the assay.
Compound activity was quantified by measuring the increase in current upon compound addition and expressing this as a percentage increase of baseline TMEM16A current level. Percentage increases in current were determined for each concentration and the data plotted as a function of concentration using either the Qpatch software or Graphpad Prism v6.05 providing the concentration which gave 50% of its maximal effect (EC50) and maximum efficacy (percentage of baseline increase).
In FIG. 1, IBL equals baseline current, km equals the peak current during test compound concentration 1 incubation period and so on.
Peak TMEM16A current at +70mV was plotted as a function of time over the assay period. Baseline current (IBL) was measured after a period of stabilisation. The increase in current for each compound addition was determined by taking the peak current during the incubation period and subtracting the current from the previous recording period and then expressing this as a percentage of the baseline current. For test compound concentration 1 in FIG. 1 this is:
For each additional concentration tested the increase in current was determined by subtracting the current from the previous incubation period and normalising the baseline value—for test concentration 2 in FIG. 1 this is:
The values for each test concentration were plotted as a cumulative function of concentration e.g. for test concentration two this would be the sum of the peak changes measured during concentration one plus concentration two.

Row | activation at 3.33 µM | EC50 | Compound
1 | 127% | 250 nM | O=C(CC1CCCCC1)Nc1ccc2[nH]c(Cc3ccccc3)nc2c1 [Example 1.1, N-(2-Benzyl-1H-benzimidazol-5-yl)-2-cyclohexyl-acetamide]
2 | 111% | 225 nM | O=C(NCC1CCCCC1)c1ccc2[nH]c(Cc3ccccc3)nc2c1 [Example 1.2, 2-Benzyl-N-(cyclohexylmethyl)-1H-benzimidazole-5-carboxamide]
3 | 146% | 441 nM | O=C(NCC12CC3CC(CC(C3)C1)C2)c1ccc2[nH]c(Cc3ccccc3)nc2c1 [Example 1.2.1, N-(1-Adamantylmethyl)-2-benzyl-1H-benzimidazole-5-carboxamide]
4 | 144% | 203 nM | CC1(CNC(=O)c2ccc3[nH]c(Cc4ccccc4)nc3c2)CCCC1 [Example 1.2.2, 2-Benzyl-N-I(1-methylcyclopentyl)methylj-1H-benzimidazole-5-carboxamide]
5 | 153% | 792 nM | C[C@@H](NC(=O)c1ccc2[nH]c(Cc3ccccc3)nc2c1)C1CCCCC1 [Example 1.2.3, 2-Benzyl-N-[(1R)-1-cyclohexylethyl]-1H-benzimidazole-5-carboxamide]
6 | 78.5% | 563 nM | CCC(C)(C)c1nc2ccc(C(=O)NCC3CCCCCC3)cc2[nH]1 [Example 1.3, N-(Cycloheptylmethyl)-2-(1,1-dimethylpropyl)-3H-benzimidazole-5-carboxamide]
7 | 135% | 425 nM | O=C(NCC1CCCCCC1)c1ccc2[nH]c(CC3(O)CCCCC3)nc2c1 [Example 1.3.1, N-(Cycloheptylmethyl)-2-[(1-hydroxycyclohexyl)methyl]-1H-benzimidazole-5-carboxamide]
8 | 92.9% | 581 nM | O=C(NCC1CCCCCC1)c1ccc2[nH]c(C(CO)c3ccccc3)nc2c1 (stereo not drawn) [Example 1.3.2, N-(Cycloheptylmethyl)-2-(2-hydroxy-1-phenyl-ethyl)-1H-benzimidazole-5-carboxamide]
9 | 81.3% | 384 nM | O=C(NCC1CCCCC1)c1ccc2nc(Cc3cccc(O)c3)[nH]c2c1 [Example 1.4, N-(Cyclohexylmethyl)-2-[(3-hydroxyphenyl)methyl]-3H-benzimidazole-5-carboxamide]
10 | 162% | 1080 nM | O=C(CC12CC3CC(CC(C3)C1)C2)Nc1ccc2[nH]c(Cc3cccc(O)c3)nc2c1 [Example 1.5, 2-(1-Adamantyl)-N-12-[(3-hydroxyphenyl)methyl]-1H-benzimidazol-5-yljacetamide]
11 | 105% | 222 nM | CC1(CC(=O)Nc2ccc3[nH]c(Cc4cccc(O)c4)nc3c2)CCCCC1 [Example 1.5.1, N-[2-[(3-hydroxyphenyl)methyl]-1H-benzimidazol-5-yl]-2-(1-methylcyclohexyl) acetamide]
12 | 136% | 227 nM | O=C(CC1CCCCCC1)Nc1ccc2[nH]c(Cc3cccc(O)c3)nc2c1 [Example 1.5.2, 2-Cycloheptyl-N-[2-[(3-hydroxyphenyl)methyl]-1H-benzimidazol-5-yl]acetamide]
13 | 93.1% | 566 nM | O=C(CC1CCCCC1)Nc1ccc2[nH]c(Cc3cccc(O)c3)nc2c1 [Example 1.5.3, 2-Cyclohexyl-N-12-[(3-hydroxyphenyl)methyl]-1H-benzimidazol-5-yljacetamide]
14 | 219% | 834 nM | O=C(CC12CC3CC(CC(C3)C1)C2)Nc1ccc2[nH]c(Cc3ccccc3)nc2c1 [Example 1.5.4, 2-(1-Adamantyl)-N-(2-benzyl-1H-benzimidazol-5-yl)acetamide]
15 | 83.9% | 231 nM | O=C(CC1(O)C2CC3CC(C2)CC1C3)Nc1ccc2[nH]c(Cc3ccccc3)nc2c1 (stereo not drawn) [Example 1.6]
16 | 136% | 587 nM | COc1cccc(Cc2nc3cc(NC(=O)CC4C5CC6CC(C5)CC4C6)ccc3[nH]2)c1 (stereo not drawn) [Example 1.7, 2-(2-Adamantyl)-N-12-[(3-methoxyphenyl)methyl]-1H-benzimidazol-5-yljacetamide]
17 | 157% | 273 nM | C[C@@H](c1ccccc1)c1nc2cc(NC(=O)CC3C4CC5CC(C4)CC3C5)ccc2[nH]1 (stereo partly drawn) [Example 1.7.1, 2-(2-Adamantyl)-N[2-[(1 S)-1-phenylethyl]-1H-benzimidazol-5-yl]acetamide]
18 | 143% | 294 nM | C[C@H](c1ccccc1)c1nc2cc(NC(=O)CC3C4CC5CC(C4)CC3C5)ccc2[nH]1 (stereo partly drawn) [Example 1.7.2, 2-(2-Adamantyl)-N[2-[(1R)-1-phenylethyl]-1H-benzimidazol-5-yl]acetamide]
19 | 114% | 1120 nM | CC(C)(C)OC(=O)NCc1nc2cc(NC(=O)CC34CC5CC(CC(C5)C3)C4)ccc2[nH]1 [Example 1.7.3, tert-Butyl N-[[5-[[2-(1-adamantyl)acetyl]amino]-1H-benzimidazol-2-yl]methyl]carbamate]
20 | 148% | 1310 nM | COc1ncccc1Cc1nc2cc(NC(=O)CC34CC5CC(CC(C5)C3)C4)ccc2[nH]1 [Example 1.7.4, 2-(1-Adamantyl)-N-12-[(2-methoxy-3-pyridyl)methyl]-1H-benzimidazol-5-yljacetamide]
21 | 126% | 260 nM | O=C(CC1C2CC3CC(C2)CC1C3)Nc1ccc2[nH]c(Cc3cccc(O)c3)nc2c1 (stereo not drawn) [Example 1.8, 2-(2-Adamantyl)-N-12-[(3-hydroxyphenyl)methyl]-1H-benzimidazol-5-yljacetamide]
22 | 52.1% | – | CC(C)(C)c1nc2cc(C(=O)NCc3cc(Cl)ccc3O)ccc2[nH]1 [Example 1.9, 2-tert-Butyl-N-[(5-chloro-2-hydroxy-phenyl)methyl]-1H-benzimidazole-5-carboxamide]
23 | 110% | 892 nM | CC(C)(C)OC(=O)NCc1nc2cc(C(=O)NCC3CCCCCC3)ccc2[nH]1 [Example 1.10, tert-Butyl N-[[5-(cycloheptylmethylcarbamoyl)-1H-benzimidazol-2-yl]methyl] carbamate]
